Laboratory results reported in BindingDB's records for doi:10.1021/acs.jmedchem.1c00726 (University of Florida, 2021).

Target: 5-hydroxytryptamine receptor 2B (Homo sapiens, UniProt P41595)
Test: Displacement of [3H]LSD from human recombinant 5-HT2B receptor expressed in CHO cells by radioligand completion assay relative to control

5-hydroxytryptamine receptor 2B, sequence (P41595 whole entry): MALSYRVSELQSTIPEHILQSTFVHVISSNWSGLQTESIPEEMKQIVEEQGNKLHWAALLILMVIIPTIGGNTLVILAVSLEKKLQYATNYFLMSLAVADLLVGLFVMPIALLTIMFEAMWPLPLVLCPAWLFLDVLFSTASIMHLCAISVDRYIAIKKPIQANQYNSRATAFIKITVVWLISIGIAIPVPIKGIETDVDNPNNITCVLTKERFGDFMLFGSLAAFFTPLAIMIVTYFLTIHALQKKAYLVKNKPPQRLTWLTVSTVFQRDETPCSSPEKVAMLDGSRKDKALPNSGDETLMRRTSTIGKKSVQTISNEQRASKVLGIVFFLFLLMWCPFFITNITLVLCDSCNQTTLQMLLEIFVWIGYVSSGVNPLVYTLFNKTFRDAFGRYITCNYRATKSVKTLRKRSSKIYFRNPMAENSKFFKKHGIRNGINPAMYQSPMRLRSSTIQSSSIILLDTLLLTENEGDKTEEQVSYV

Q: How did the Ki turn out when `COc1cc(C[C@@H](C)N)c(OC)cc1I` [(R)-2-(4-iodo-2,5-dimethoxyphenyl)-1-methylethylamine] was run?
A: 2.2 nM
